These are literature values, as cited in US20110230564A1, “ANT4 INHIBITOR COMPOUNDS AND METHODS OF USE THEREOF” (priority 2008, published 2011).

The subject of the series is sperm. As to conditions: 50 μM.

In the case of `CO[C@H](C/C=C\C=C\CC/C=C/C[C@H](C)/C=C/C(=C\C(=O)O)CC(=O)O)/C(C)=C\C=C(/C)C(=O)O` [Bongkrekic acid], the sperm motility result is on record as “almost completely immotile”.
